Patent US11801238B2, “Anti-viral activity of VPS34 inhibitors” (priority 2020, dated 2023)

Assays:
SARS CoV-2 [1] = experiment: SARS CoV-2 CPE assay for antiviral activity in Vero E6 host cells; format: cell-based; settings: read-out: IC50 for inhibition of SARS CoV-2 mediated cell killing
[2] = Compound cytotoxicity (CC50) counter screen, Cell Titer-Glo; format: cell-based; settings: African green monkey, Example 5, Vero E6 cells, read-out: CC50 (general cytotoxic effects)
Method: Compound cytotoxicity (CC50) is assessed in a BSL-2 counter screen as follows: Host cells in media are added in 25 μl aliquots (4000 cells/well) to each well of assay ready plates prepared with test compounds as above. Cells only (100% viability) and cells treated with hyamine at 100 μM final concentration (0% viability) serve as the high and low signal controls, respectively, for cytotoxic effect in the assay. DMSO is maintained at a constant concentration for all wells (0.3%) as dictated by the dilution factor of stock test compound concentrations. After incubating plates at 37° C./5% CO2 and 90% humidity for 72 hours, 30 μl Cell Titer-Glo (Promega) is added to each well. Luminescence is read using a BMG PHERAstar plate reader following incubation at room temperature for 10 minutes to measure cell viability.

SARS CoV-2 [3] = experiment: microbe, parasite or virus in culture; format: cell-based; settings: Severe acute respiratory syndrome coronavirus 2, A549, 48 h; read-out: IC50 for inhibition of SARS CoV-2 mediated cell killing
in vitro = settings: human
[4] = Vero C1008, CPE assay, Vero E6 cells, USA_WA1/2020 SARS CoV-2, 72 hours, 10-point dose response (high concentration 15 μM)

## COC(=O)Nc1cc(-c2cc(-c3ccccc3C(F)(F)F)[nH]c(=O)c2)ccn1 [Compound 1]
SARS CoV-2 [1]; [4]
  IC50: 120 nM
[2]
  CC50 at 72 h: > 30000 nM
SARS CoV-2 [3]
  IC50: 90 nM
In vitro
  CC50: 17000 nM

## CC(=O)Nc1cc(-c2cc(-c3cccnc3C(F)(F)F)[nH]c(=O)c2)ccn1 [Compound 2]
SARS CoV-2 [1]; [4]
  IC50: 2340 nM
[2]
  CC50 at 72 h: > 30000 nM
SARS CoV-2 [3]
  IC50: 470 nM
In vitro
  CC50: > 30000 nM

## COC(=O)Nc1cc(-c2cc(-c3cccnc3C(F)(F)F)[nH]c(=O)c2)ccn1 [Compound 3]
SARS CoV-2 [1]; [4]
  IC50: 340 nM
[2]
  CC50 at 72 h: > 30000 nM
SARS CoV-2 [3]
  IC50: 190 nM
In vitro
  CC50: > 30000 nM

## COC(=O)Nc1cc(-c2cc(N3CCOCC3C(F)(F)F)[nH]c(=O)c2)ccn1 (stereo not shown) [Compound 4]
SARS CoV-2 [1]; Vero C1008, 72 h
  IC50: 209 nM
[2]
  CC50 at 72 h: 8260 nM
SARS CoV-2 [3]
  IC50: 67 nM
In vitro
  CC50: 2400 nM
